Experiments:
Format in all cases: binding
TEAD3 YAP50-100 = TEAD3 YAP50-100 (Homo sapiens, UniProt Q99594); assay: TEAD3-YAP HTRF (TR-FRET) protein-protein interaction assay; settings: TEAD3, YAP peptide 50-100, HTRF; for EC50: read-out: TEAD3 YAP50-100 HTRF combined: EC50
Outline: (§1)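 TEAD YBD (aa 217-447, His-tag) + Eu anti-His; cpd 30 min; + biotin-YAP 50-100 or biotin-TAZ 13-57 / SA-XL665; 60 min RT; TR-FRET 665/615; 4-parameter IC50/EC50.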

[1] = molecular target: TEAD1 TAZ (amino acids 13-57) (Homo sapiens, UniProt P28347); assay: TEAD1-TAZ HTRF (TR-FRET) protein-protein interaction assay; settings: for TEAD1 TAZ HTRF combined: Max % Inhibition: TEAD1, TAZ peptide; for EC50: TEAD1-TAZ HTRF, TR-FRET 665 nm/615 nm, read-out: TEAD1 TAZ HTRF combined: EC50
Outline: as §1

TEAD1 YAP50-100 = TEAD1 YAP50-100 (Homo sapiens, UniProt P28347); assay: TEAD1-YAP HTRF (TR-FRET) protein-protein interaction assay; settings: TEAD1, YAP peptide 50-100, HTRF; for EC50: read-out: TEAD1 YAP50-100 HTRF combined: EC50
Outline: as §1

[2] = molecular target: TEAD3 TAZ (amino acids 13-57) (Homo sapiens, UniProt Q99594); assay: TEAD3-TAZ HTRF (TR-FRET) protein-protein interaction assay; settings: for TEAD3 TAZ HTRF combined: Max % Inhibition: TEAD3, TAZ peptide; for EC50: TEAD3-TAZ HTRF, TR-FRET 665 nm/615 nm, read-out: TEAD3 TAZ HTRF combined: EC50
Outline: as §1

TEAD2 YAP50-100 = TEAD2 YAP50-100 (Homo sapiens, UniProt Q15562); assay: TEAD2-YAP HTRF (TR-FRET) protein-protein interaction assay; settings: TEAD2, YAP peptide 50-100, HTRF; for EC50: read-out: TEAD2 YAP50-100 HTRF combined: EC50
Outline: as §1

[3] = molecular target: TEAD2 TAZ (amino acids 13-57) (Homo sapiens, UniProt Q15562); assay: TEAD2-TAZ HTRF (TR-FRET) protein-protein interaction assay; settings: for TEAD2 TAZ HTRF combined: Max % Inhibition: TEAD2, TAZ peptide; for EC50: TEAD2-TAZ HTRF, TR-FRET 665 nm/615 nm, read-out: TEAD2 TAZ HTRF combined: EC50
Outline: as §1

[4] = molecular target: TEAD4 TAZ (amino acids 13-57) (Homo sapiens, UniProt Q15561); assay: TEAD4-TAZ HTRF (TR-FRET) protein-protein interaction assay; settings: for TEAD4 TAZ HTRF combined: Max % Inhibition: TEAD4, TAZ peptide; for EC50: TEAD4-TAZ HTRF, TR-FRET 665 nm/615 nm, read-out: TEAD4 TAZ HTRF combined: EC50
Outline: as §1

TEAD4 YAP50-100 = TEAD4 YAP50-100 (Homo sapiens, UniProt Q15561); assay: TEAD4-YAP HTRF (TR-FRET) protein-protein interaction assay; settings: TEAD4, YAP peptide 50-100, HTRF; for EC50: read-out: TEAD4 YAP50-100 HTRF combined: EC50
Outline: as §1

Chain of TEAD3 YAP50-100 (Q99594 173-435 limits assumed): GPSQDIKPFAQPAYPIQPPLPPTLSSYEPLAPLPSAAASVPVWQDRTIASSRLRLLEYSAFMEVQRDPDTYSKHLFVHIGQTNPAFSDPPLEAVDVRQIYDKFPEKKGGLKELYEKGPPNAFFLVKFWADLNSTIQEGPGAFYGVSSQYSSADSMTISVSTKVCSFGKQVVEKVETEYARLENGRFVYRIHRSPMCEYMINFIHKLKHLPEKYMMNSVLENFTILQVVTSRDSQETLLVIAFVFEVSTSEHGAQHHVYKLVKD
Chain of TEAD3 TAZ (amino acids 13-57) (Q99594 173-435 limits assumed): as above
Chain of TEAD4 YAP50-100 (Q15561 217-434 limits assumed): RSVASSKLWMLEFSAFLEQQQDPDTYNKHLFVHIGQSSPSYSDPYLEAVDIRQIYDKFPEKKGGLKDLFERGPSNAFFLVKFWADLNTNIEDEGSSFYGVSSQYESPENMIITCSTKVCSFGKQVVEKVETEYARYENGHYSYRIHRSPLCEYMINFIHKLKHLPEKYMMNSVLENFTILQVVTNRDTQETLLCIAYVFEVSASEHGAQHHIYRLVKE
Chain of TEAD4 TAZ (amino acids 13-57) (Q15561 217-434 limits assumed): as above
Chain of TEAD2 YAP50-100 (Q15562 217-447): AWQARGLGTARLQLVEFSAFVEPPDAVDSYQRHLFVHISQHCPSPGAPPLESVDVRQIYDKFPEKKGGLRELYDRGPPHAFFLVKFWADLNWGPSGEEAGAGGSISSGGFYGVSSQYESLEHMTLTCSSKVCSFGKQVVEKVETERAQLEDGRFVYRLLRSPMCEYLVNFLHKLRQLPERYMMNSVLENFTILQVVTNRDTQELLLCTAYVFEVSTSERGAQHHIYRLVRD
Chain of TEAD2 TAZ (amino acids 13-57) (Q15562 217-447): as above
Chain of TEAD1 YAP50-100 (P28347 167-426 limits assumed): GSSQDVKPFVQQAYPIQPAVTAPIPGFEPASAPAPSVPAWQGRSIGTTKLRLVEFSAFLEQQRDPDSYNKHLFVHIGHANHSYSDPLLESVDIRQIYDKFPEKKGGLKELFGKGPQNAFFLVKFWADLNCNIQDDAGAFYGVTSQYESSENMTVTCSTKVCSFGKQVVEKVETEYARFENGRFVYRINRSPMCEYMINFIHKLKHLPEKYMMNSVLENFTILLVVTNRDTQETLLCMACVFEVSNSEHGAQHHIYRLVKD
Chain of TEAD1 TAZ (amino acids 13-57) (P28347 167-426 limits assumed): as above

SMILES | TEAD3 YAP50-100 HTRF combined: Max % Inhibition (TEAD3 YAP50-100) [%] | EC50 (TEAD3 YAP50-100) [nM] | TEAD1 TAZ HTRF combined: Max % Inhibition [1] [%] | EC50 [1] [nM] | TEAD1 YAP50-100 HTRF combined: Max % Inhibition (TEAD1 YAP50-100) [%] | EC50 (TEAD1 YAP50-100) [nM] | TEAD3 TAZ HTRF combined: Max % Inhibition [2] [%] | EC50 [2] [nM] | TEAD2 YAP50-100 HTRF combined: Max % Inhibition (TEAD2 YAP50-100) [%] | EC50 (TEAD2 YAP50-100) [nM] | TEAD2 TAZ HTRF combined: Max % Inhibition [3] [%] | EC50 [3] [nM] | TEAD4 TAZ HTRF combined: Max % Inhibition [4] [%] | EC50 [4] [nM] | TEAD4 YAP50-100 HTRF combined: Max % Inhibition (TEAD4 YAP50-100) [%] | EC50 (TEAD4 YAP50-100) [nM]
CCN(C)C(=O)c1nn2c(=O)cc(-c3ccc(C4CCCCC4)cc3)[nH]c2c1C(=O)N1CC(CF)C1 [Compound 35, 5-(4-Cyclohexylphenyl)-N-ethyl-3-(3-(fluoromethyl)azetidine-1-carbonyl)-N-methyl-7-oxo-4,7-dihydropyrazolo[1,5-a]pynmidine-2-carboxamide] | 68.0 | 130 | 59.0 | 80 | 72.0 | 70 | 57.0 | 150 | 71.5 | 20 | 71.5 | 20 | 37.0 | 140 | 52.5 | 180
Cc1nccnc1-c1nn2c(=O)cc(-c3ccc(C4CCCCC4)cc3)[nH]c2c1C(=O)N1C[C@@H](CF)[C@H]1C (single isomer, unassigned) [Isomer A, Example 41] | 74.0 | 530 | 53.5 | 180 | 69.0 | 150 | 70.0 | 690 | 26.0 | 60 | 35.0 | 50 | 51.5 | 4900 | 51.0 | 5500
O=C(c1c(-c2cnccn2)nn2c(=O)cc(-c3ccc(CC4CCCC4)cc3)[nH]c12)N1CC(CF)C1 [Compound 25, 5-(4-(Cyclopentylmethyl)phenyl)-3-(3-(fluoromethyl)azetidine-1-carbonyl)-2-(pyrazin-2-yl)pyrazolo[1,5-a]pyrimidin-7(4H)-one] | 50.0 | 40 | 52.0 | 40 | 60.0 | 30 | 44.0 | 40 | 63.5 | 10 | 62.0 | 10 | 47.0 | 20 | 45.5 | 20
O=C(c1c(-c2nccc(C(F)(F)F)n2)nn2c(=O)cc(-c3ccc(C4CCCCC4)cc3)[nH]c12)N1CC(CF)C1 [Compound 11, 5-(4-Cyclohexylphenyl)-3-(3-(fluoromethyl)azetidine-1-carbonyl)-2-(4-(trifluoromethyl)pyrimidin-2-yl)pyrazolo[1,5-a]pyrimidin-7(4H)-one] | 68.5 | 120 | 69.0 | 70 | 74.0 | 70 | 61.0 | 120 | 63.5 | 20 | 63.0 | 20 | 48.5 | 860 | 48.0 | 1050
O=C(c1c(-c2cnccn2)nn2c(=O)cc(-c3ccc(C4CCCCC4)c(F)c3)[nH]c12)N1CC(CF)C1 [Compound 23, 5-(4-Cyclohexyl-3-fluorophenyl)-3-(3-(fluoromethyl)azetidine-1-carbonyl)-2-(pyrazin-2-yl)pyrazolo[1,5-a]pyrimidin-7(4H)-one] | 64.0 | 110 | 61.5 | 70 | 70.0 | 40 | 56.5 | 110 | 55.5 | 10 | 55.5 | 10 | 35.0 | 50 | 39.5 | 50
CC1CCN1C(=O)c1nn2c(=O)cc(-c3ccc(C4CCCCC4)cc3)[nH]c2c1C(=O)N1CC(CF)C1 (single isomer, unassigned) [Enantiomer B, Example 33, 5-(4-Cyclohexylphenyl)-3-(3-(fluoromethyl)azetidine-1-carbonyl)-2-(2-methylazetidine-1-carbonyl)pyrazolo[1,5-a]pyrimidin-7(4H)-one] | 69.0 | 150 | 64.0 | 100 | 72.0 | 80 | 58.5 | 200 | 72.0 | 20 | 68.0 | 20 | 37.5 | 570 | 49.0 | 670
Cc1nccnc1-c1nn2c(=O)cc(-c3ccc(CC4CCCC4)cc3)[nH]c2c1C(=O)N1C[C@@H](CF)[C@H]1C (single isomer, unassigned) [Isomer A, Example 42] | 69.5 | 320 | 49.0 | 80 | 64.0 | 80 | 66.0 | 340 | 45.0 | 20 | 57.0 | 20 | 20.0 | 1100 | 48.5 | 4850
C[C@@H]1[C@H](CF)CN1C(=O)c1c(C(=O)N(C)C)nn2c(=O)cc(-c3ccc(C4CCCCC4)cc3)[nH]c12 [Compound 6, 5-(4-Cyclohexylphenyl)-3-((2R,3R)-3-(fluoromethyl)-2-methylazetidine-1-carbonyl)-N,N-dimethyl-7-oxo-4,7-dihydropyrazolo[1,5-a]pyrimidine-2-carboxamide] | 71.5 | 4950 | 70.5 | 520 | 73.0 | 410 | 64.5 | 6000 | 69.5 | 710 | 67.5 | 710 | 14.0 | 35500 | 17.0 | 19500
CC(C)(C)c1ccc(COc2cc(=O)n3nc(-c4ncccn4)c(C(=O)N4CC(CF)C4)c3[nH]2)cc1 [Compound 54, 5-((4-(Tert-butyl)benzyl)oxy)-3-(3-(fluoromethyl)azetidine-1-carbonyl)-2-(pyrimidin-2-yl)pyrazolo[1,5-a]pyrimidin-7(4H)-one] | 56.5 | 80 | 63.0 | 70 | 71.0 | 50 | 45.0 | 90 | 59.0 | 20 | 59.5 | 20 | 56.0 | 40 | 60.5 | 40
